# Results: publication PMC5796017, “Enantiomeric Effect of D-Amino Acid Substitution on the Mechanism of Action of α-Helical Membrane-Active Peptides” (International Journal of Molecular Sciences, 2017)
# Columns and labels:
# BxPC-3 = assay: MTT cell viability assay; assay type: cell-based, human; details: BxPC-3, MTT, 24 h; mean ± SEM of three independent determinations
# In short: (§1)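 Cells seeded at 5000 per well in DMEM/10% FBS, exposed to peptides for 24 h at 37 °C. Viability by MTT, formazan dissolved in DMSO, absorbance at 492 nm. IC50 is the concentration giving 50% viability loss; triplicate.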
# HPAC = assay: MTT cell viability assay; assay type: cell-based, human; details: 24 h, mean ± SEM of three independent determinations
# In short: as §1
# MIA PaCa-2 = assay: MTT cell viability assay; assay type: cell-based, human; details: MIA PaCa-2, MTT, 24 h; mean ± SEM of three independent determinations
# In short: as §1
# HeLa = assay: MTT cell viability assay; assay type: cell-based, human; details: 24 h, mean ± SEM of three independent determinations
# In short: as §1
# [1] = Circular dichroism (CD) secondary structure; assay type: physicochemical
# In short: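 Peptide secondary structure was measured by circular dichroism on a Jasco J-810 CD spectrometer at 25 °C, in benign KP buffer to mimic a hydrophilic environment and in 50% 2,2,2-trifluoroethanol (benign buffer: TFE = 1:1, vol/vol) to mimic a membrane-like hydrophobic environment. Mean residue molar ellipticity at 222 nm, [θ]222 (degree·cm^2·dmol^−1), calculated as [θ] = θ/10lCMn, gave relative helical content.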
# E. coli ATCC25922 = assay: Antimicrobial activity, microtiter dilution MIC; assay type: cell-based, Escherichia coli; details: G−; MH medium, 5 × 10^5 CFU/mL, 37 °C, 24 h, triplicate
# In short: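 Broth microdilution in Mueller–Hinton medium, inoculum 5 × 10^5 CFU/mL, serially diluted peptide, 24 h at 37 °C. MIC taken as lowest peptide concentration preventing growth; triplicate runs.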
smiles,measurement,setting,value
CC[C@H](C)[C@H](NC(=O)[C@H](C)NC(=O)[C@H](CCCCN)NC(=O)[C@H](CC(C)C)NC(=O)[C@H](C)NC(=O)[C@@H](NC(=O)[C@H](Cc1cnc[nH]1)NC(=O)[C@H](CC(C)C)NC(=O)[C@@H](NC(=O)[C@@H](NC(=O)[C@H](CCCCN)NC(=O)[C@H](CCCCN)NC(=O)[C@H](C)NC(=O)[C@H](CO)NC(=O)[C@H](CCCCN)NC(=O)[C@H](Cc1ccccc1)NC(=O)[C@@H](NC(=O)[C@H](CCCCN)NC(=O)[C@H](CC(C)C)NC(=O)[C@H](Cc1ccccc1)NC(=O)[C@H](CO)NC(=O)[C@H](CCCCN)NC(=O)[C@H](Cc1c[nH]c2ccccc12)NC(=O)[C@H](CCCCN)NC(C)=O)[C@@H](C)O)[C@@H](C)O)C(C)C)[C@@H](C)O)C(=O)N[C@@H](CO)C(=O)N[C@@H](CO)C(N)=O [Peptide V13K],IC50,BxPC-3,12.5 ± 1.2 µM
same,IC50,HPAC,7.6 ± 4 µM
same,IC50,MIA PaCa-2,24.8 ± 0.6 µM
same,IC50,HeLa,16 ± 0.5 µM
same,"[θ]222, benign","[1]; CD, KP buffer (100 mM KCl, 50 mM KH2PO4/K2HPO4, pH 7.4), 75 μM peptide, 25 °C",−5617.46 degree·cm^2·dmol^−1
same,"[θ]222, 50% TFE","[1]; CD, KP buffer with 50% TFE, 75 μM peptide, 25 °C","−50,520.3 degree·cm^2·dmol^−1"
same,"α-Helix (%), 50% TFE (relative helicity)","[1]; KP buffer with 50% TFE, relative to molar ellipticity of V13K in 50% TFE",100%
same,"α-Helix (%), benign","[1]; KP buffer, relative to molar ellipticity of V13K in 50% TFE",11.1%
same,MIC,E. coli ATCC25922,8 µM
